Here are results for five molecules from patent publication US20250049841A1 (priority 2021, published 2025).

In brackets after ≈: the same amount, converted by molar mass. Several values for one entry are separate records, joined by “and”; a condition that tells them apart may be missing. Equal values may be shown once. Read-outs that look alike come from different tables or passages of the source.

Series [1] has as its system SARS-CoV-2 USA_WA1/2020 strain.
Series [2] has as its system SARS-CoV-2 USA_WA1/2020 strain. The source holds these as a separate data set.
Series [3] relates to normal, human-derived tracheal/bronchial epithelial (TBE) cells. The series is described as follows: Toxicity of test compounds in the TBE tissue model (Example 1). The settings on record: any of the test compound concentrations.
Procedure: (§1) Cell Culture: The EpiAirway™ Model consists of normal, human-derived tracheal/bronchial epithelial (TBE) cells which have been cultured to form a multi layered, highly differentiated model which closely resembles the epithelial tissue of the respiratory tract.
(§2) The TBE cells were grown on 6 mm mesh disks in transwell inserts. […] The cells have unique properties in forming layers, the apical side of which is exposed only to air and that creates a mucin layer. Upon arrival, the cell transwell inserts were immediately transferred to individual wells of a 6-well plate according to manufacturer's instructions, and 1 mL of MatTek's proprietary culture medium (AIR-100-MM) was added to the basolateral side, whereas the apical side was exposed to a humidified 5% CO2 environment. The TBE cells were cultured at 37° C. for one day before the start of the experiment. After the 24 h equilibration period, the mucin layer, secreted from the apical side of the cells, was removed by washing with 400 μL pre-warmed 30 mM HEPES buffered saline solution 3X. Culture medium was replenished following the wash steps.
(§3) Experimental design: Each 2× compound treatment (120 L) and virus (120 μL) was applied to the apical side, and 1× compound treatment only was applied to the basal side (1 mL), for a 2 h incubation. […]
In series [4] the test system is SARS-CoV-2 (strain USA-WA1/2020). In words: microbe, parasite or virus in culture. The series is classed as cell-based, human. The settings on record: Severe acute respiratory syndrome coronavirus 2, 120 h.
The subject of series [5] is Respiratory syncytial virus (RSV-A2). The series is described as follows: microbe, parasite or virus in culture. The settings on record: human respiratory syncytial virus, read-out: EC90 (VYR 90% effective concentration).
Series [6] deals with Influenza A/California/7/2009 (H1N1). The series is described as follows: microbe, parasite or virus in culture. The settings on record: H1N1, in Homo sapiens, read-out: EC90 (VYR 90% effective concentration).
The nature of the next series: in vitro. The settings on record: human.
In series [7] the test system is Respiratory syncytial virus (RSV-A2). As to conditions: for SI = CC50/EC90: RSV-A2.
The subject of series [8] is Influenza A/California/7/2009 (H1N1). As to conditions: fresh drug on days 1 and 2; for Log10 CCID50 virus per 0.2 mL: H1N1, day 3.
Series [9] relates to SARS-CoV-2 USA_WA1/2020 strain. As to conditions: hamster, in vivo.
Series [10] deals with normal, human-derived tracheal/bronchial epithelial (TBE) cells.
Procedure: as §1, §2, §3
Series [11] has the same test system. This is another data set of the same source.
Procedure: (§4) The amount of formazan is directly proportional to the number of living cells and the resulting colored solution is quantified by measuring absorbance at 450 nanometers using a multi-well spectrophotometer. Drug concentrations of 2 mg/ml and 1 mg/ml were tested in duplicate wells, and a drug concentration of 0.5 mg/ml was tested in singlet wells. On day 3 (H1N1) or day 6 (RSV), the apical side was washed one time with 400 μL pre-warmed PBS. The CCK-8 solution was added (200 L) to the apical side and incubated at 37° C. for 2 hours. The formazan (100 l) was placed into a 96-well plate and the 450 nm absorbance was recorded. Percent toxicity values were calculated as a percentage of the cell control test wells (no drug treatment) and reported as the 50% cell cytotoxic concentration (CC50) of compound (no virus). Tissues were also observed via microscopy to assess cytotoxicity.
Where [12] appears, read: 200 mg/kg/d b.i.d. PO, individual animals.
Setting [13] is: 500 mg/kg/d b.i.d. PO, individual animals.

Procedure for in vitro: as §4

With `CC(C)C(=O)OC[C@H]1O[C@@H](n2ccc(NO)nc2=O)[C@H](O)[C@@H]1O` [EIDD-2801], the “effect on lung weights” value in series [1] (200 mg/kg/d PO) was “not significantly affected”. The “effect on weight loss (percent initial body weight)” value in series [1] (200 mg/kg/d PO, P<0.01 vs placebo) is “prevented weight loss”. In addition, in series [1] (200 mg/kg/d PO, any day post-infection), the “effect on oropharyngeal swab virus titers” value was “did not reduce”. For the same molecule, the “effect on lung virus titers” value in [1] (200 mg/kg/d PO, day 6 post-infection, P<0.0001 vs placebo) is “reduced lung virus titers”. In addition, the “effect on nasal tissue virus titers” value in [1] (200 mg/kg/d PO, vs placebo) is listed as “did not significantly reduce”. Moreover, in series [1] (setting [12]), the “Oropharyngeal swab Virus Titer, Day Post-Infection 5” value is 2.0 CCID50/mL (Log10) and <0.7 CCID50/mL (Log10) (3×) and 1.7 CCID50/mL (Log10); the “Oropharyngeal swab Virus Titer, Day Post-Infection 6” value is on record as <0.7 CCID50/mL (Log10); the “Virus Titer, Lung tissue, Day 6” value is reported as <0.7 CCID50/mL (Log10). For the same molecule, the “reduction in lung virus titers, day 3 post-infection” value in series [2] (500 mg/kg/d PO) is reported as “one”. Besides, in series [2] (500 mg/kg/d PO, FIG. 21, once daily comparison), the “effect on nasal tissue virus titers” value is “did not significantly reduce”. The “effect on lung weights” value in [2] (500 mg/kg/d PO, FIG. 22) is reported as “did not significantly reduce”. For the same molecule, the “effect on nasal tissue virus titers, day 3 post-infection” value in series [2] (500 mg/kg/d PO, FIG. 25, twice daily comparison, P<0.01) was “significantly reduced”. Further, in series [2] (500 mg/kg/d PO, FIG. 26), the “effect on lung weights, Day 6” value is listed as “significantly affected”. Further, the “effect on lung virus titers, day 3 post-infection” value in series [2] (500 mg/kg/d PO, P<0.01 vs placebo) is on record as “significantly reduced”. Also, in series [2] (setting [13]), the “Virus Titer, Lung tissue, Day 6” value is <0.7 CCID50/mL (Log10); the “Virus Titer, Nasal tissue, Day 6” value is <0.7 CCID50/mL (Log10) (4×) and 1.7 CCID50/mL (Log10).
Regarding `CO[Si](CCCN(C)[N+]([O-])=NO)(OC)OC` [MAP3-NONOate, N, N-methylaminopropyl diazeniumdiolate trimethoxysilane], the toxicity result in series [3] is recorded as “No toxicity was observed”.
`CCC(CC)COC(=O)[C@H](C)N[P@](=O)(OC[C@H]1O[C@@](C#N)(c2ccc3c(N)ncnn23)[C@H](O)[C@@H]1O)Oc1ccccc1` [Remdesivir]: the EC90 in [4] (read-out: EC90 (Titer 1)) and in [4] (read-out: EC90 (Titer Avg.)) was 6.5 ng/mL (≈ 0.0108 µM) each time.
Consider `NC(=O)c1ncn([C@@H]2O[C@H](CO)[C@@H](O)[C@H]2O)n1` [Ribavirin], for which the EC90 in series [5] came to 5.12 µg/mL (≈ 21 µM); in series [6], 1.89 µg/mL (≈ 7.74 µM). Besides, the CC50 in the series “in vitro” is above 100 µg/mL. Also, the CC50 at 6 days in the series “in vitro” is above 100 µg/mL. Further, the “EC90 (VYR 90% effective concentration)” value in [7] turned out to be 4.6 µg/mL (≈ 18.8 µM). For the same molecule, the “SI = CC50/EC90” value is given as above 19.54 in series [7] (fresh drug on days 1, 2, and 5); above 21.7 in [7] (fresh drug on days 1-5); above 52.9 in series [8] (H1N1). For the same molecule, the “Log10 CCID50 virus per 0.2 mL” value in series [8] (concentration 1 μg/ml) is 6.50 Log10 CCID50 virus per 0.2 mL; in series [8] (concentration 10 μg/ml) it was 4.00 Log10 CCID50 virus per 0.2 mL; in [8] (concentration 100 μg/ml), 2.67 Log10 CCID50 virus per 0.2 mL.
With berdazimer sodium, the adverse events result in [1] (hamster, in vivo, 2 mg/kg/day) was “No adverse events were observed”. Further, the premature deaths entry in series [9] is “no premature deaths were observed”. The toxicity entry in series [10] was “No toxicity was observed”. Also, the “cytotoxicity, tissues observed under the microscope” value in series [11] is reported as “no overt cytotoxicity”. Also, the deaths entry in series [2] (hamster, in vivo) is recorded as “two of the ten animals”.
